The test system of one assay is pERK in MKN1 cells. The assay can be described thus: pERK inhibition, In-Cell Western (LI-COR Odyssey), MKN1 cells. The assay is classed as cell-based. In short, it runs like this:
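IC50 was fitted from % pERK inhibition, calculated as the GAPDH-normalised pERK signal of each well divided by the vehicle mean. Signal was imaged at 700 and 800 nm after fixation, methanol permeabilisation and dual antibody staining. Before fixation, MKN1 cells had received compound for about 0.5–1 h at 37 °C, top concentration 10 µM, nine 3-fold dilutions.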

Assay [1] concerns the target T1, recombinant human SOS1 polypeptide (amino acids 560-1049) (Homo sapiens, UniProt Q07889).
T1 construct: corresponding to amino acids 560-1049, expressed in E. Coli; made in house; host or cells: E. coli
T1 sequence (Q07889 560-1049): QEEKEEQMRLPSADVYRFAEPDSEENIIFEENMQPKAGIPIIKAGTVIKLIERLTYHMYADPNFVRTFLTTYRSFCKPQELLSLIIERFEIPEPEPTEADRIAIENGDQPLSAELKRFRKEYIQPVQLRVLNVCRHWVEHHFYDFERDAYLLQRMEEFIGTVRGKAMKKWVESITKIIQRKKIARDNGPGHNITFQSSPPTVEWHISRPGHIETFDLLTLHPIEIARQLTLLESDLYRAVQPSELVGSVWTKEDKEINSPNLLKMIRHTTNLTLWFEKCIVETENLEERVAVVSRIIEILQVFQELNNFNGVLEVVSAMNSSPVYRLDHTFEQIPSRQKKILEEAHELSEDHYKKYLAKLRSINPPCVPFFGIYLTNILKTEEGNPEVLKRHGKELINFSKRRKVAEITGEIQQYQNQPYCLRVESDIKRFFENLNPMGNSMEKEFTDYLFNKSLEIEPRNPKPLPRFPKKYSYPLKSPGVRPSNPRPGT
The assay is described as follows: HTRF displacement assay: inhibition of labeled tracer binding to SOS1. For orientation: In TR-FRET formats the signal depends on donor and acceptor labels being close together.
Method: The ability of a compound of Formula (I) to bind to SOS1 was measured using a HTRF displacement assay. […] After a 1-hour incubation at room temperature, the HTRF signal was measured using Clairostar plate reader (BMG Labtech) according to the manufacturer's instructions. Excitation filter EX-TR was used, and emission 1 was detected at 650-610 nm and emission 2 detected at 620-610 nm. The HTRF ratio was calculated using the formula: [emission 1/emission 2]*10000.
Background signals were calculated from well with a 10 μM inhibitor, known to inhibit 100% at that concentration. The background subtracted signals were converted to % binding relative to DMSO controls. Data were analyzed using XLFIT software (IDBS) using a Morrison equation for competitive binding and Ki's were generated compound of Formula (I).

[2] abbreviates: Homo sapiens, MKN-1, Table B, MKN1 or H358 cells (table does not say which), 0.5-1 hour incubation, read-out: IC50 (nM), pERK inhibition.
The mark [3] stands for this setting: Table A, Morrison equation for competitive binding.
Setting [4] is: Homo sapiens, MKN-1, read-out: IC50 (nM), pERK inhibition.
[5] abbreviates: Table A1, Morrison equation for competitive binding.
[6] abbreviates: Homo sapiens, MKN-1, Table B1, MKN1 or H358 cells (table does not say which), 0.5-1 hour incubation, read-out: IC50 (nM), pERK inhibition.

Molecules are shown by their SMILES. Where a name gives a salt, the structure may show the parent alone. Read-outs that look alike come from different tables or passages of the source.

22 molecules from patent US20250059182A1, “SOS1 INHIBITORS” (Mirati Therapeutics, Inc., priority 2021, published 2025) can be followed below.

One may read the IC50 as the concentration at which inhibition is half-maximal. Broadly, the Ki is the dissociation constant of the complex between target and ligand, obtained from inhibition or displacement. As for `Cc1c([C@@H](C)Nc2nnc(C)c3ccc(N4CCOCC4)cc23)cc(N)nc1C(F)(F)F` [Example 1-111, (R)-N-(1-(6-amino-3-methyl-2-(trifluoromethyl)pyridin-4-yl)ethyl)-4-methyl-7-morpholinophthalazin-1-amine], in the assay with pERK in MKN1 cells (setting [2]), the IC50 was 57.9 nM. Moreover, the Ki in assay [1] (setting [3]) worked out at 2.91 nM.

As for `COCCN1CC2(CCN2c2cc3c(N[C@H](C)c4cccc(C#N)c4C)nnc(C)c3cc2F)C1` [Example P-218, (R)-3-(1-((6-fluoro-7-(6-(2-methoxyethyl)-1,6-diazaspiro[3.3]heptan-1-yl)-4-methylphthalazin-1-yl)amino)ethyl)-2-methylbenzonitrile formic acid salt], in the assay with pERK in MKN1 cells (setting [4]), the IC50 was found to be 60.3 nM. Besides, the Ki in assay [1] (setting [5]) stood at 0.786 nM.

As for `Cc1c(C#N)cccc1[C@@H](C)Nc1nnc(C)c2cnc(N3CCc4ncn(C)c4C3)cc12` [Example P-57, (R)-2-methyl-3-(1-((4-methyl-7-(3-methyl-3,4,6,7-tetrahydro-5H-imidazo[4,5-c]pyridin-5-yl)pyrido[3,4-d]pyridazin-1-yl)amino)ethyl)benzonitrile], the IC50 in the assay with pERK in MKN1 cells (setting [6]) was determined as 914 nM. The Ki in assay [1] (setting [5]) was 1.17 nM.

Regarding `Cc1c(C#N)cccc1[C@@H](C)Nc1nnc(C)c2cnc(N(C)[C@@H]3CCNC3)cc12` [Example 1-52, 2-methyl-3-((R)-1-((4-methyl-7-(methyl((R)-pyrrolidin-3-yl)amino)pyrido[3,4-d]pyridazin-1-yl)amino)ethyl)benzonitrile], the IC50 in the assay with pERK in MKN1 cells (setting [2]) worked out at 457 nM. Also, the Ki in assay [1] (setting [3]) was 1.11 nM.

Consider `Cc1c(C#N)cccc1[C@@H](C)Nc1nnc(N2CC[C@H](N(C)C)C2)c2cnc(N3C[C@H]4C[C@@H]3CO4)cc12` [Example P-176, 3-((R)-1-((7-((1R,4R)-2-oxa-5-azabicyclo[2.2.1]heptan-5-yl)-4-((S)-3-(dimethylamino)pyrrolidin-1-yl)pyrido[3,4-d]pyridazin-1-yl)amino)ethyl)-2-methylbenzonitrile], for which the IC50 in the assay with pERK in MKN1 cells (setting [6]) was found to be 120 nM. The Ki in assay [1] (setting [5]) is 0.708 nM.

Turning to `Cc1c(C#N)cccc1[C@@H](C)Nc1nnc(C)c2cc(F)c(N(C)C)cc12` [Example P-222, (R)-3-(1-((7-(dimethylamino)-6-fluoro-4-methylphthalazin-1-yl)amino)ethyl)-2-methylbenzonitrile], in the assay on pERK in MKN1 cells (setting [6]), the IC50 was 188 nM. Besides, the Ki in assay [1] (setting [5]) stood at 3.97 nM.

Take `Cc1c([C@@H](C)Nc2nnc(C)c3cnc(N4C[C@H]5C[C@@H]4CO5)cc23)cc(N)nc1C(F)(F)F` [Example 1-106, N-((R)-1-(6-amino-3-methyl-2-(trifluoromethyl)pyridin-4-yl)ethyl)-7-((1R,4R)-2-oxa-5-azabicyclo[2.2.1]heptan-5-yl)-4-methylpyrido[3,4-d]pyridazin-1-amine]: the 50% inhibitory concentration (IC50) with pERK in MKN1 cells (setting [2]) was determined as 128 nM. In assay [1] (setting [3]), the inhibitory constant (Ki) came to 7.3 nM.

As for `Cc1nnc(N[C@H](C)c2cccc3c2OCC3(F)F)c2cc(N3CCN(C)CC3)ncc12` [Example 1-100, (R)-N-(1-(3,3-difluoro-2,3-dihydrobenzofuran-7-yl)ethyl)-4-methyl-7-(4-methylpiperazin-1-yl)pyrido[3,4-d]pyridazin-1-amine], the IC50 with pERK in MKN1 cells (setting [2]) came out at 25.1 nM. For the same molecule, the Ki in assay [1] (setting [3]) amounted to 0.423 nM.

In the case of `Cc1c(C#N)cccc1[C@@H](C)Nc1nnc(C)c2cc(F)c(N(C)[C@H]3CCN(C)C3)cc12` [Example P-179, 3-((R)-1-((6-fluoro-4-methyl-7-(methyl((S)-1-methylpyrrolidin-3-yl)amino)phthalazin-1-yl)amino)ethyl)-2-methylbenzonitrile], in the assay on pERK in MKN1 cells (setting [6]), the IC50 came out at 84.7 nM. In assay [1] (setting [5]), the Ki was found to be 0.714 nM.

In the case of `Cc1c(C#N)cccc1[C@@H](C)Nc1nnc(C)c2cc(F)c(N3C[C@@H]4C[C@H]3CO4)cc12` [Example 4-13, 3-((R)-1-((7-((1S,4S)-2-oxa-5-azabicyclo[2.2.1]heptan-5-yl)-6-fluoro-4-methylphthalazin-1-yl)amino)ethyl)-2-methylbenzonitrile], in the assay with pERK in MKN1 cells (setting [2]), the IC50 came to 165 nM. Moreover, the Ki in assay [1] (setting [3]) amounted to 16.1 nM.

With `Cc1c(C#N)cccc1[C@@H](C)Nc1nnc(C)c2cnc(N3CCCC34CN(C)C4)cc12` [Example 1-22, (R)-2-methyl-3-(1-((4-methyl-7-(2-methyl-2,5-diazaspiro[3.4]octan-5-yl)pyrido[3,4-d]pyridazin-1-yl)amino)ethyl)benzonitrile], the IC50 with pERK in MKN1 cells (setting [2]) is 33.2 nM. The Ki in assay [1] (setting [3]) was 0.248 nM.

With `Cc1nnc(N[C@H](C)c2cccc(C(C)(F)F)c2F)c2cc(N3CCOCC3)ncc12` [Example P-169, (R)-N-(1-(3-(1,1-difluoroethyl)-2-fluorophenyl)ethyl)-4-methyl-7-morpholinopyrido[3,4-d]pyridazin-1-amine], the IC50 in the assay with pERK in MKN1 cells (setting [6]) stood at 71.4 nM. Moreover, the inhibitory constant (Ki) in assay [1] (setting [5]) worked out at 0.827 nM.

Turning to `Cc1c(C#N)cccc1[C@@H](C)Nc1nnc(C)c2cc(F)c(N3C[C@@H]4C[C@H]3CN4C)cc12` [Example 4-14, 3-((R)-1-((6-fluoro-4-methyl-7-((1S,4S)-5-methyl-2,5-diazabicyclo[2.2.1]heptan-2-yl)phthalazin-1-yl)amino)ethyl)-2-methylbenzonitrile], the IC50 with pERK in MKN1 cells (Table B, MKN1 or H358 cells (table does not say which), 0.5-1 hour incubation, read-out: IC50 (nM), pERK inhibition) amounted to 41.6 nM. For the same molecule, in assay [1] (setting [3]), the Ki worked out at 1.16 nM.

Consider `Cc1c(C#N)cccc1[C@@H](C)Nc1nnc(C)c2cnc(N(C)C[C@H]3CCCN3C)cc12` [Example 1-58, 2-methyl-3-((R)-1-((4-methyl-7-(methyl(((R)-1-methylpyrrolidin-2-yl)methyl)amino)pyrido[3,4-d]pyridazin-1-yl)amino)ethyl)benzonitrile], for which, in the assay on pERK in MKN1 cells (setting [2]), the IC50 came to 73.8 nM. The Ki in assay [1] (setting [3]) stood at 1.89 nM.

Turning to `Cc1c(C#N)cccc1[C@@H](C)Nc1nnc(C)c2cc(C(F)F)c(N3CCN(C)CC3)cc12` [Example P-185, (R)-3-(1-((6-(difluoromethyl)-4-methyl-7-(4-methylpiperazin-1-yl)phthalazin-1-yl)amino)ethyl)-2-methylbenzonitrile formic acid], the half-inhibitory concentration (IC50) in the assay on pERK in MKN1 cells (setting [4]) is 118 nM. For the same molecule, the Ki in assay [1] (setting [5]) worked out at 4.95 nM.

With `Cc1c(C#N)cccc1[C@@H](C)Nc1nnc(C)c2cnc(N3CCN(C(=O)[C@H]4CCCN4C)CC3)cc12` [Example 2-1, 2-methyl-3-((R)-1-((4-methyl-7-(4-(methyl-D-prolyl)piperazin-1-yl)pyrido[3,4-d]pyridazin-1-yl)amino)ethyl)benzonitrile], in the assay with pERK in MKN1 cells (setting [2]), the IC50 worked out at 551 nM. Also, the inhibitory constant (Ki) in assay [1] (setting [3]) is 0.458 nM.

Regarding `Cc1c(C#N)cccc1[C@@H](C)Nc1nnc(C)c2cc(F)c(N(C)C3CCN(C)CC3)cc12` [Example 4-3, (R)-3-(1-((6-fluoro-4-methyl-7-(methyl(1-methylpiperidin-4-yl)amino)phthalazin-1-yl)amino)ethyl)-2-methylbenzonitrile], the half-maximal inhibitory concentration (IC50) in the assay on pERK in MKN1 cells (setting [2]) was 150 nM. In addition, in assay [1] (setting [3]), the Ki turned out to be 3.34 nM.

With `Cc1nnc(N[C@H](C)c2cccc(C(F)(F)F)c2F)c2cc(N3CC4(COC4)C3)c(F)cc12` [Example 4-10, (R)-6-fluoro-N-(1-(2-fluoro-3-(trifluoromethyl)phenyl)ethyl)-4-methyl-7-(2-oxa-6-azaspiro[3.3]heptan-6-yl)phthalazin-1-amine], the IC50 with pERK in MKN1 cells (setting [2]) was 141 nM. Further, the Ki in assay [1] (setting [3]) is 2.4 nM.

For the molecule `Cc1c(C#N)cccc1[C@@H](C)Nc1nnc(C)c2cnc(C3=CCN(C)CC3)cc12` [Example 3-2, (R)-2-methyl-3-(1-((4-methyl-7-(1-methyl-1,2,3,6-tetrahydropyridin-4-yl)pyrido[3,4-d]pyridazin-1-yl)amino)ethyl)benzonitrile], the IC50 in the assay on pERK in MKN1 cells (setting [2]) is 124 nM. In addition, the Ki in assay [1] (setting [3]) was 11.5 nM.

Consider `Cc1c(C#N)cccc1[C@@H](C)Nc1nnc(C)c2cc(F)c(N(C)[C@@H]3CCN(C)C3)cc12` [Example P-178, 3-((R)-1-((6-fluoro-4-methyl-7-(methyl((R)-1-methylpyrrolidin-3-yl)amino)phthalazin-1-yl)amino)ethyl)-2-methylbenzonitrile], for which the IC50 in the assay with pERK in MKN1 cells (setting [6]) was 54.7 nM. For the same molecule, the Ki in assay [1] (setting [5]) is 1.1 nM.

Consider `Cc1c(C#N)cccc1[C@@H](C)Nc1nnc(C)c2cc(F)c(N3CCN4CCOC[C@@H]4C3)cc12` [Example 4-11, 3-((R)-1-((6-fluoro-7-((S)-hexahydropyrazino[2,1-c][1,4]oxazin-8(1H)-yl)-4-methylphthalazin-1-yl)amino)ethyl)-2-methylbenzonitrile], for which the IC50 with pERK in MKN1 cells (setting [2]) was 162 nM. For the same molecule, the Ki in assay [1] (setting [3]) stood at 5.77 nM.

As to `COC1(c2cc3c(N[C@H](C)c4cccc(C#N)c4C)nnc(C)c3cn2)CCOCC1` [Example P-81, (R)-3-(1-((7-(4-methoxytetrahydro-2H-pyran-4-yl)-4-methylpyrido[3,4-d]pyridazin-1-yl)amino)ethyl)-2-methylbenzonitrile], in the assay on pERK in MKN1 cells (setting [6]), the IC50 was determined as 565 nM. Also, the Ki in assay [1] (setting [5]) turned out to be 61.7 nM.
